This note sets out measurements from patent publication US4670469A, “Hydroxamic acid and pharmaceutical preparations containing the same” (VEB Arzneimittelwerk Dresden, priority 1983, dated 1987).

Each structure is given as a SMILES string. Read-outs that look alike come from different tables or passages of the source.

The target of assay [1] is T1, lipoxygenase from rabbit reticulocytes (Oryctolagus cuniculus, UniProt P12530).
T1 construct: The lipoxygenase from rabbit reticulocytes is obtained in electrophoretically and immunologically pure form; from tissue; host or cells: rabbit reticulocytes
T1 sequence (P12530 1-663): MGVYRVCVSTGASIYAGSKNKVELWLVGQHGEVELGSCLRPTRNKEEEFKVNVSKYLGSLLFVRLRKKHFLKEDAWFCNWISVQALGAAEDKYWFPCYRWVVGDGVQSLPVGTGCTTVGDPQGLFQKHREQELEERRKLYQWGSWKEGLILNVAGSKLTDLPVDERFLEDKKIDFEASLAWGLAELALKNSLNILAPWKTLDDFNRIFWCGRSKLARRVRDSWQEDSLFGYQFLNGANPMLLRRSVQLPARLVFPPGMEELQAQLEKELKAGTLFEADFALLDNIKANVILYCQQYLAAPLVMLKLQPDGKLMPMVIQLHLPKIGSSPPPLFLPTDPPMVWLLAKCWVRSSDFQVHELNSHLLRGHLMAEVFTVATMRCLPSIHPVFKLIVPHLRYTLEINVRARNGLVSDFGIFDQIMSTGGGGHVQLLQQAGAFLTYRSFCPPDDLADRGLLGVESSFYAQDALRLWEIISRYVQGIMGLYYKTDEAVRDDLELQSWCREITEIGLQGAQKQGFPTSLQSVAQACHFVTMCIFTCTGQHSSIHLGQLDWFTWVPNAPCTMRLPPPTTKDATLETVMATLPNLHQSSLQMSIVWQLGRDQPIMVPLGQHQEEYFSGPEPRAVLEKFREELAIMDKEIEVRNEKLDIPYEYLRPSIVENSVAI
Description: Inhibition of the activity of lipoxygenase from rabbit reticulocytes (oxygen consumption, Clark electrode). The class given is biochemical. How it is done:
The lipoxygenase from rabbit reticulocytes was obtained in electrophoretically and immunologically pure form according to a technique known from the literature (S. M. Rapoport et al. Methods in Enzymology 71, 430 (1981)). The determination of lipoxygenase activity follows at 25° C. through the polarographic measurement of the oxygen consumption by means of Clark Electrode in a standardized system.
Through variation of the substance concentrations, the titration curves of the inhibition and therefrom the inhibition concentrations (I-value) of the compounds can be determined.
The testing of compounds for antiasthmatic, antiallergenic, inflammation-inhibiting and antithrombotic activity on the basis on the inhibition of the lipoxygenase reaction of the arachidonic acid cascade follows in a molecular/pharmacological test system. […] The lipoxygenase from rabbit reticulocytes is obtained in electrophoretically and immunologically pure form according to the techniques described in the literature (supra). The determination of the lipoxygenase activity follows at 25° C. through the polorographic measurement of oxygen consumption by means of a Clark-electrode in the following system: 0.1M potassiumphosphate, pH 7.4, with 0.2 percent sodium cholate and 0.53 mM linoleic acid. The enzyme concentration in the measurement preparation came to 25 nM. The compounds to be tested are dissolved in methylglycol (freshly distilled in a vacuum) and pre-incubated for 15 minutes at the measuring temperature in the absence of sodium cholate and linoleic acid. […] The enzyme reaction is started by the addition of sodium cholate and linoleic acid.

The target in a further assay is lipoxygenase from peas. Description: Inhibition of lipoxygenase from peas. It is filed as biochemical. The conditions noted are these: read-out: I50. On the procedure:
The inhibition of thrombocyte aggregation is likewise ascribed to the inhibition of lipoxygenase in the cells. It has thus been shown that the arachidonate-lipoxygenase activity of a microsome-free lysate of human thrombocyte concentrates is inhibited to the extent of 100% by means of 0.25 mM salicylhydroxamic acid. Moreover, it has been shown that also a series of further lipoxygenases are inhibited by means of the here described hydroxamic acids. The lipoxygenase from soybeans reacts the most insensitive, i.e. it is inhibited by means of 1 mM salicylhydroxamic acid at pH 7.4 to an extent of 60% and by means of 0.4 mM 2-hydroxy-1-napthylhydroxamic acid to an extent of 54%. In contrast, for the lipoxygenase from peas which come closer in their characteristics to human lipoxygenase, the following I50 -values are provided: salicyl hydroxamic acid, 5 μM, 2-hydroxy-1-napthylhydroxamic acid, 2 μM, 2(2'-napthoxy)-acethydroxamic acid, 2 μM. Moreover it has been shown that the formation lipoxygenase products of arachidonic acid in in vitro cultivated aorta endothelial cells of calves is hindered through 0.1 mM 2-hydroxy-1-napthylhydroxamic acids.

The next assay concerns guinea pig lung strips. Description: Arachidonic acid-induced spasm of isolated guinea pig lung strips. The conditions noted are these: active substance 100 μM. From the text:
They display in animal experimental tests on isolated lung strips from guinea pigs a pronounced antiasthmatic effect. The testing of the mentioned pharmacological characteristics follows according to the principles of measuring techniques known from the literature, which come into use in modified form (G. M. Drazen et al. G. Clin. Invest. 63 1 (1979); M. W. Schneider and G. M. Drazen Amer. Rev. Resp. Dis. 121 835 (1980); S. S. Yen and W. Kreutner, Agents Actions 10 274 (1980); S. S. Yen Prostaglandins 22, 183 (1981)).
The compounds of Formula I effect a significant restraint on arachidonic acid-induced bronchial constriction (1.5.10^-5 M arachidonic acid) in the guinea pig lung preparations (see, Example 6). Also with the addition of a cyclooxygenase inhibitor to the measuring system this effect was unaltered, and to some extent stronger, detectably. These experimental results permit without a doubt the conclusion that the compounds of Formula I involve inhibitors of the lipoxygerase pathway of arachidonic utilization, and the above described pharmacological effect is grounded upon this mechanism of activity.
The testing of the compounds for antiasthmatic activity follows on isolated lung strips and isolated tracheal rings from guinea pigs according to measuring methods known from the literature (supra) in modified form. The measurements follow in thermostatically controlled organ bath, isotonically using a contraction measuring arrangement with lift receiver, measuring coil, measuring amplifier (inductive measurement with the aid of a high frequency resonant circuit). The gasification follows with air. The suspension solution has the following composition: 39.46 g NaCl, 2.2 g KCl, 6.07 g Tris, 1.0 g CaCl2, 9.9 g glucose, 1.0 ml saturated MgCl2 -solution, 43 ml 1N HCl; pH 7.4.
(a) Activity on spasm of the guinea pig lung strips, induced by exogenous arachidonic acid.
The spasm is triggered by rising concentrations of arachidonic acid (concentrated solution in ethanol, stored in N2 -atmosphere) and is cumulatively measured. […] The active substance caused a highly significant displacement to the right of the Dose-Activity curves for arachidonic acid, visible by a clear elevation of the ED50 - and ED84 -values. The effect can be described through the following activity index: [formula] In an analogous manner, the index i84 is determined from the measured data.

In the case of `O=C(COc1ccc2ccccc2c1)NO` [2(2'-naphthoxy)-acethydroxamic acid], the IC50 in assay [1] (25° C., pH 7.4, 0.53 mM linoleic acid, 15 min pre-incubation, read-out: I50) amounted to 2.5 µM; at lipoxygenase from peas, 2 µM. Moreover, the IC84 in assay [1] (25° C., pH 7.4, 0.53 mM linoleic acid, 15 min pre-incubation, read-out: I84) was 9 µM. Besides, the “activity index i50 (displacement of arachidonic acid ED50)” value in the assay with guinea pig lung strips came to 5.8. For the same molecule, in the assay on guinea pig lung strips, the “activity index i84 (displacement of arachidonic acid ED84)” value is 7.1.
`O=C(NO)c1ccccc1O` [salicylhydroxamic acid] came in with an IC50 in assay [1] of 20 µM. In addition, the IC50 on lipoxygenase from peas was 5 µM. Also, in the assay with guinea pig lung strips, the “activity index i50 (displacement of arachidonic acid ED50)” value worked out at 1.9 and the “activity index i84 (displacement of arachidonic acid ED84)” value worked out at 8.5.
